Measured values reported in PubChem BioAssay AID1963849 (Molecular Pharmacology Branch, DTP, NCI, 2024).
“And” between values parts separate entries of the source, which are not always exact repeats. Equal entries are not always repeated.

Test system: 299254-011-R-J1-PDC complex spheroid viability
Assay: Anticancer human tumor 299254-011-R-J1-PDC patient-derived melanoma cell line growth inhibition [POLQ]
Details: for viability, T/C: stronger effect = lower value
Protocol: Multicellular complex tumor spheroid response to Polymerase (POL) inhibitors (novobiocin, ART-558, RP6685) in combination with a variety of drugs and investigational agents in selected tumor cell lines
The POL inhibitors (novobiocin, ART-558, and RP6685) were evaluated both individually and in combination with standard of care and investigational anticancer small molecules within a complex spheroid model of solid tumors. . Complex spheroids include a stromal component modeled by human endothelial cells (HUVEC) and fibroblasts modeled by human mesenchymal stem cells (MSCs). The concentration ranges selected for each drug and investigational agent were based upon clinically achievable concentrations if the clinical Cmax of the agent was known.
Compounds. The drugs and investigational agents: novobiocin (NSC847541), ART-558 (NSC835418), RP-6685 (NSC848927), peposertib (NSC802822), ceralasertib (NSC780249), elimusertib (NSC800525), camonsertib (NSC841442), AZD-1390 (NSC803789), olaparib (NSC753686), talazoparib (NSC767125), rucaparib (NSC756644), sotorasib (NSC818433), MRTX-1133 (NSC836407), SN-38 (NSC673596), topotecan (NSC609699), epotoside (NSC141540), doxorubicin (NSC123127), gemcitabine (NSC613327), 5-fluorouracil (NSC19893), paclitaxel (NSC125973), vemurafenib (NSC761431), MSA-2 (NSC828583), SN-011 (NSC837082), adavosertib (NSC754352), prexasertib (NSC758257), carboplatin (NSC241240) and oxaliplatin (NSC266046), were obtained from the National Cancer Institute (NCI) Developmental Therapeutics Program Chemical Repository (21). The FDA-approved anticancer drug set is available from the Developmental Therapeutics Program at https://dtp.cancer.gov/organization/dscb/obtaining/. […] The stock solutions were prepared in dimethyl sulfoxide (DMSO, Sigma-Aldrich, St. Louis, MO, cat. D2650), except for the platinum compounds which were prepared in saline (Quality Biological, Gaithersburg, MD, cat. 114-055-101), at 800-fold the tested concentration and stored at -70 degrees C prior to their use. All drugs and investigational agents were tested over a range starting from a high concentration at or near the clinical Cmax and decreasing in half-log increments. If the clinical Cmax for an agent had not been determined, the highest concentration tested was 10 microM, except for SN-38, which was tested at a high concentration of 1 microM.
Cell Culture. All cells were maintained in an incubator at 37 degrees C and 5% CO2 with 95% humidity. The PDC lines were cultured according to standard operating procedures established by the NCI PDMR (https://pdmr.cancer.gov). Table 3 of the manuscript, lists the cell lines along with the number of the three cell types plated to form the mct-spheroids and media for tumor cell growth. After thawing, all PDC lines, except 997537-175-T-J1-PDC and 415267-285-R-J2-PDC, were cultured in Matrigel-coated flasks prepared with a working solution of 1X Ham's F-12 nutrient mix, without supplementation (Thermo Fisher Scientific, cat. 11765054), 100 U/mL penicillin-streptomycin (Thermo Fisher Scientific, cat. 15140122), and 2.5% Matrigel (Corning Inc., Corning, NY, cat. 354248) for the first three passages. The two PDC lines 997537-175-T-J1-PDC and 415267-285-R-J2-PDC were cultured on uncoated flasks. The 857933-349-R-J2-PDC line was cultured in 6C/Colon 1B media containing advanced DMEM/F-12 (Thermo Fisher Scientific, cat. 12634028), 10 mM HEPES (Thermo Fisher Scientific, cat. 15630080), 1X GlutaMAX supplement (Thermo Fisher Scientific, cat. 35050061), 0.1 mg/mL primocin (InvivoGen, San Diego, CA, cat. ant-pm-2), 10% defined fetal bovine serum, heat inactivated (HyClone Laboratories Inc., Logan, UT, cat. SH30070.03HI), 50% L-WRN conditioned media (ATCC, cat. CRL-3276), 1.25 mM N-Acetyl-L-cysteine (Sigma-Aldrich, cat. A9165), 10 mM nicotinamide (Sigma-Aldrich, cat. N0636), 1X B-27 supplement (Thermo Fisher Scientific, cat. 17504044), 1X N-2 supplement (Thermo Fisher Scientific, cat. […]
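Note: spheroids exposed to drugs for one week before measurement.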
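Throughout, for viability, T/C: percent viability relative to DMSO vehicle control taken as 100%.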

C=CC(=O)N1CCN(c2nc(=O)n(-c3c(C)ccnc3C(C)C)c3nc(-c4c(O)cccc4F)c(F)cc23)C(C)C1 (centres undefined)
viability, T/C (compound 0.0316 µM): 84.9% and 90.1% and 80.7% | viability, T/C (compound 0.1 µM): 71.5% and 77.5% and 66.9% | viability, T/C (compound 0.316 µM): 85.2% and 74.5% and 70.9% | viability, T/C (compound 1 µM): 72.8% and 66.9% and 60.2% | viability, T/C (compound 3.16 µM): 63.5% and 85.5% and 63% | viability, T/C (compound 10 µM): 66.1% and 77.9% and 62.6% | IC50 (curve of compound): > 10 µM

O=c1[nH]cc(F)c(=O)[nH]1 + COC1C(OC(N)=O)C(O)C(Oc2ccc3c(O)c(NC(=O)c4ccc(O)c(CC=C(C)C)c4)c(=O)oc3c2C)OC1(C)C
IC50 (curve of first compound, second compound 0.0316 µM): > 10 µM | IC50 (curve of first compound, second compound 0.1 µM): > 10 µM | IC50 (curve of first compound, second compound 0.316 µM): > 10 µM | IC50 (curve of first compound, second compound 1 µM): > 10 µM | IC50 (curve of first compound, second compound 3.16 µM): > 10 µM | IC50 (curve of first compound, second compound 10 µM): > 10 µM | viability, T/C (second compound 0.0316 µM, first compound 0.0316 µM): 109% | viability, T/C (second compound 0.0316 µM, first compound 0.1 µM): 108% | viability, T/C (second compound 0.0316 µM, first compound 0.316 µM): 122% | viability, T/C (second compound 0.0316 µM, first compound 1 µM): 99.6% | viability, T/C (second compound 0.0316 µM, first compound 3.16 µM): 94.3% | viability, T/C (second compound 0.0316 µM, first compound 10 µM): 66.8% | viability, T/C (second compound 0.1 µM, first compound 0.0316 µM): 110% | viability, T/C (second compound 0.1 µM, first compound 0.1 µM): 110% | viability, T/C (second compound 0.1 µM, first compound 0.316 µM): 114% | viability, T/C (second compound 0.1 µM, first compound 1 µM): 113% | viability, T/C (second compound 0.1 µM, first compound 3.16 µM): 93.7% | viability, T/C (second compound 0.1 µM, first compound 10 µM): 76.3% | viability, T/C (second compound 0.316 µM, first compound 0.0316 µM): 109% | viability, T/C (second compound 0.316 µM, first compound 0.1 µM): 102% | viability, T/C (second compound 0.316 µM, first compound 0.316 µM): 116% | viability, T/C (second compound 0.316 µM, first compound 1 µM): 101% | viability, T/C (second compound 0.316 µM, first compound 3.16 µM): 91.8% | viability, T/C (second compound 0.316 µM, first compound 10 µM): 79.1% | viability, T/C (second compound 1 µM, first compound 0.0316 µM): 111% | viability, T/C (second compound 1 µM, first compound 0.1 µM): 115% | viability, T/C (second compound 1 µM, first compound 0.316 µM): 92.8% | viability, T/C (second compound 1 µM, first compound 1 µM): 110% | viability, T/C (second compound 1 µM, first compound 3.16 µM): 101% | viability, T/C (second compound 1 µM, first compound 10 µM): 87.7% | viability, T/C (second compound 3.16 µM, first compound 0.0316 µM): 110% | viability, T/C (second compound 3.16 µM, first compound 0.1 µM): 117% | viability, T/C (second compound 3.16 µM, first compound 0.316 µM): 128% | viability, T/C (second compound 3.16 µM, first compound 1 µM): 112% | viability, T/C (second compound 3.16 µM, first compound 3.16 µM): 91.3% | viability, T/C (second compound 3.16 µM, first compound 10 µM): 68.8% | viability, T/C (second compound 10 µM, first compound 0.0316 µM): 130% | viability, T/C (second compound 10 µM, first compound 0.1 µM): 131% | viability, T/C (second compound 10 µM, first compound 0.316 µM): 96.2% | viability, T/C (second compound 10 µM, first compound 1 µM): 109% | viability, T/C (second compound 10 µM, first compound 3.16 µM): 89.9% | viability, T/C (second compound 10 µM, first compound 10 µM): 78.3%
